Experimental data taken from patent publication US5459131A, “Renin inhibitors” (American Cyanamid Company, priority 1991, dated 1995).

These substances were tested against T1, human kidney renin (Homo sapiens, UniProt P00797) (assay: Radioimmunoassay screen for renin inhibitors (angiotensin I generation, then RIA quantitation)). Conditions: purified human plasma angiotensinogen substrate, maleate buffer pH 6.0, 1 hour at 37° C.; read-out: Renin Inhibition IC50 Molar Concentration.
T1 construct: Human renin is prepared from human kidney; from tissue; host or cells: human kidney
T1 sequence (P00797 67-406): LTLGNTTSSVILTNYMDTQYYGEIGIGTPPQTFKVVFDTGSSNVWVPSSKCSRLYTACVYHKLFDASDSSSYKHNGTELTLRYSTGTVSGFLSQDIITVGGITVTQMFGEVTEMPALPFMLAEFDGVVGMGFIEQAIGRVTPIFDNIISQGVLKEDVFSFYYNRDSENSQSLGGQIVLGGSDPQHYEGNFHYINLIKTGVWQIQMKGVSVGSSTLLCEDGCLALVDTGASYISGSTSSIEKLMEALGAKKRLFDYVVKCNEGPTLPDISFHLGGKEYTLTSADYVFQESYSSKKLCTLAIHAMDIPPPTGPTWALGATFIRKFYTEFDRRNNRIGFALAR
Format: biochemical
Protocol: Radioimmunoassay Screen For Renin Inhibitors
The in vitro method for the screening of anti-renin compounds involves, first, angiotensin I generation, and second, the quantitation of the angiotensin I produced by radioimmunoassay.
The incubation medium consisted of 20 μl of purified human plasma angiotensinogen; (1) 10 μl of human kidney renin; (2) 5 μl of phenylmethylsulfonyl fluoride; 10 μl of disodium EDTA (10 mM); 10 μl of antirenin compound (5×10^-3 M, 5×10^-4 M, 5×10^-5 M) in dimethylformamide, or ethanol and a suitable amount of maleate buffer (77 mM, pH 6.0) to make a final volume of 500 μl . The reaction mixture is incubated for one hour at 37° C. and the enzymatic reaction is stopped by placing the tube in ice-cold water. The angiotensin I generated during the incubation is measured by a radioimmunoassay plasma renin activity kit (Clinical Assays, Inc.).
Radioimmunoassay Procedure
The incubation medium consisted of either 100 μl aliquots of the above reaction mixture or a standard amount of angiotensin I; 1000 μl of phosphate buffer (100 mM, pH 7.6) and 100 μl of (^125 I) angiotensin in a gamma-coat tube. After three hours of incubation at room temperature, the tubes are decanted, and the radioactivity of each tube is determined in a gamma counter. Duplicate determinations are performed for each incubation. The results are expressed in ng of angiotensin I generated per ml of generation medium per hour of incubation (ng/AI/ml/hr).
The results of this test on representative compounds of this invention appear in Table I, expressed as an IC50.
(1) The human plasma angiotensinogen derived from the blood of a person receiving oral contraceptive pills is purified by chromatography on a pepstatinaminohexyl-agarose column.
(2) Human renin is prepared from human kidney.

IC50 | Substance
12 nM | [S-(R*,S*)]-1-cyclohexyl-1,2,4,5,6,7-hexadeoxy-2-[[2-[[1,4-dioxo-4-phenyl-2-(phenylmethyl)butyl]amino]-4-methyl-1-oxopentyl]amino]-4,7-epithio-L-arabino-Heptitol, [R (or S)]-S-oxide
1.5 nM | [S-(R*,S*)[-4,7-anhydro-2-[[2-[[4-(2-benzofuranyl)-1,4-dioxo-2-(phenylmethyl)butyl]amino]-3-(1H-imidazol-4-yl)-1-oxopropyl]amino]-1-cyclohexyl-1,2,5,6-tetradeosy-L-arabino-Heptitol
470 nM | [S-(R*,S*)]-4,7-anhydro-1-cyclohexyl-1,2,5,6-tetradoxy-2-[[2-[[1,4-dioxo-4-phenyl-2-(phenylmethyl)butyl]amino]-4-methyl-1-oxopentyl]amino]-D-xylo-Heptitol
2.4 nM | [S-(R*,S*)]-4,7-anhydro-1-cyclohexyl-1,2,5,6-tetradeoxy-2-[[4-methyl-2-[[4-[3-[(methylamino)sulfonyl]phenyl]-1,4-dioxo-2-(phenylmethyl)butyl]amino]-1-oxopentyl]amino]-L-arabino-Heptitol
71 nM | [S-(R*,R*)]-4,7-anhydro-1-cyclohexyl-1,2,5,6-tetradeoxy-2-[[4-methyl-2-[[4-[3-[(methylamino)sulfonyl]phenyl]-1,4-dioxo-2-(phenylmethyl)buyhl]amino]-1-oxopentyl]amino]-L-arabino-Heptitol
8.3 nM | [S-(R*,S*)]-1-cyclohexyl-2-[[2-[[1,4-dioxo-4-phenyl-2-(phenylmethyl)butyl]amino]-4-methyl-1-oxopentyl]amino]-4,7-epithio-1,2,4,5,6,7-hexadeoxy-L-arabino-Heptitol, (R and S)-S-oxide
42 nM | [S-(R*,R*)]4,7-anhydro-2-[[2-[[4-(2-benzofuranyl)-1,4-dioxo-2-(phenylmethyl)butyl]amino]-3-(1H-imidazol-4-yl)-1-oxopropyl]amino]-1-cyclohexyl-1,2,5,6-tetradeoxy-L-arabino-Heptitol
0.08 nM | [S-(R*,S*)]-4,7-anhydro-1-cyclohexyl-1,2,5,6-tetradeoxy-2-[[2-[[1,4-dioxo-2-(phenylmethyl)-4-(2-thienyl)butyl]amino]-4-methyl-1-oxo-pentyl]amino]-L-arabino-Heptitol
